Reference: patent US20050209278A1, “Piperidinyl- and piperazinyl-sulfonylmethyl hydroxamic acids and their use as protease inhibitors” (priority 2002, published 2005)
pKi: −log10 of the molar value. Like-named read-outs stand apart in the source and are kept apart here.

How the values were obtained:
MMP-14 = biological target: T1, MMP-14 (Homo sapiens, UniProt P50281); test: In vitro MMP inhibition, Ki determination (fluorogenic substrate II); type: biochemical; conditions: read-out: MMP-14 Ki
T1 construct: The catalytic domain enzyme was expressed in E. coli inclusion bodies, solubilized in urea; made in house
Procedure, shortened: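 Apparent Ki was fitted with Morrison's equation from reaction rates at a single low enzyme level. Enzyme was APMA- or trypsin-activated refolded MMP-14 catalytic domain, buffered at pH 7.5 with 10 mM CaCl2.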

MMP-2 = biological target: T2, MMP-2 (Homo sapiens, UniProt P08253); test: as above; type: biochemical; conditions: read-out: MMP-2 Ki
T2 construct: made in house; host or cells: MMP-2-transfected p2AHT2 cells
T2 sequence (P08253 110-660): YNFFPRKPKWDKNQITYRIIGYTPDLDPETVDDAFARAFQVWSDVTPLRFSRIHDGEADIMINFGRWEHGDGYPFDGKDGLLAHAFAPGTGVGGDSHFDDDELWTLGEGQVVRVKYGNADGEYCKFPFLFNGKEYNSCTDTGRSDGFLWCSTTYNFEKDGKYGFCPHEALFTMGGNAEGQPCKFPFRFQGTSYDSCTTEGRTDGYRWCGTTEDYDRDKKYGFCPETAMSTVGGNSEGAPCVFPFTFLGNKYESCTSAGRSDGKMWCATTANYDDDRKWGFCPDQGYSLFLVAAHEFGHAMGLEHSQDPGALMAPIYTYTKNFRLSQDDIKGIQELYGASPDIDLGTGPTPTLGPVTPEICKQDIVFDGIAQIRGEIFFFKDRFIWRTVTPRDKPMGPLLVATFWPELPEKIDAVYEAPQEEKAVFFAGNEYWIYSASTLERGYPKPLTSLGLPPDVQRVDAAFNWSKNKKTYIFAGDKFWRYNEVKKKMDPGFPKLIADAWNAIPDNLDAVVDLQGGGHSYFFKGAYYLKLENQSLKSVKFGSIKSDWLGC

Structure (SMILES) | pKi (MMP-14; value outside parentheses) | pKi (MMP-2; value outside parentheses) | pKi (MMP-14; value not in parenthesis) | pKi (MMP-2; value not in parenthesis)
CCCCCCCOC1CCN(S(=O)(=O)C2(C(=O)NO)CCOCC2)CC1 [Example 406] | 5.92 | 8.75 | – | –
O=C(NO)C1(S(=O)(=O)N2CCN(c3nc(-c4ccccc4)cs3)CC2)CCOCC1 [Example 415] | < 5.00 | 5.54 | – | –
CCCCc1ccc(C2CCN(S(=O)(=O)C3(C(=O)NO)CCN(CCOC)CC3)CC2)nc1 [Example 397] | 5.53 | 9.16 | – | –
CCCCCC/C=C\C1CCN(S(=O)(=O)C2(C(=O)NO)CCOCC2)CC1 [Example 401] | 5.57 | 7.89 | – | –
O=C(NO)C1(S(=O)(=O)N2CCC(c3ccc(OCc4ccccc4)cn3)CC2)CCOCC1 [Example 398] | 6.29 | 8.88 | – | –
Cc1cccc(-c2csc(N3CCN(S(=O)(=O)C4(C(=O)NO)CCOCC4)CC3)n2)c1 [Example 413] | < 5.00 | 5.22 | – | –
CCc1ccc(-c2ccc(C3CCN(S(=O)(=O)C4(C(=O)NO)CCOCC4)CC3)nc2)cc1 [Example 393] | 6.71 | 8.65 | – | –
O=C(NO)C1(S(=O)(=O)N2CCC(c3ccc(-c4ccccn4)cn3)CC2)CCOCC1 [Example 409] | 5.75 | 7.61 | – | –
O=C(NO)C1(S(=O)(=O)N2CCC(c3ccc(-c4cccc(F)c4)cn3)CC2)CCOCC1 [Example 417] | 5.89 | 8.38 | – | –
CCCCc1ccc(C2(O)CCN(S(=O)(=O)C3(C(=O)NO)CCOCC3)CC2)nc1 [Example 420] | < 5.00 | 6.74 | – | –
O=C(NO)C1(S(=O)(=O)N2CCC(c3ccc(N4CCCC4)cn3)CC2)CCOCC1 [Example 408] | 5.98 | 8.19 | – | –
O=C(NO)C1(S(=O)(=O)N2CCC(COCc3ccc(C(F)(F)F)cc3)CC2)CCOCC1 [Example 403] | 6.89 | 8.30 | – | –
CCCCCC/C=C/C1CCN(S(=O)(=O)C2(C(=O)NO)CCOCC2)CC1 [Example 402] | – | 9.08 | – | –
O=C(NO)C1(S(=O)(=O)N2CCC(COCc3ccc(SC(F)(F)F)cc3)CC2)CCOCC1 [Example 405] | 7.02 | 8.90 | – | –
O=C(NO)C1(S(=O)(=O)N2CCN(c3ccc(-c4nn[nH]n4)cc3)CC2)CCOCC1 [Example 419] | < 5.00 | 7.55 | – | –
CCCC#Cc1cnc(N2CCN(S(=O)(=O)C3(C(=O)NO)CCOCC3)CC2)s1 [Example 400] | 6.14 | 9.15 | – | –
O=C(NO)C1(S(=O)(=O)N2CCC(COCc3ccc(OC(F)(F)F)cc3)CC2)CCOCC1 [Example 404] | 7.14 | 8.85 | – | –
O=C(NO)C1(S(=O)(=O)N2CCC(c3ccc(OCCC(F)(F)F)cn3)CC2)CCOCC1 [Example 418] | 5.27 | 9.01 | – | –
CCC(F)(F)CCc1ccc(C2CCN(S(=O)(=O)C3(C(=O)NO)CCOCC3)CC2)cn1 [Example 411] | < 5.00 | 7.82 | – | –
Cc1ccc(-c2ccc(C3CCN(S(=O)(=O)C4(C(=O)NO)CCOCC4)CC3)nc2)s1 [Example 416] | 6.30 | 8.68 | – | –
CCCCc1ccc(N2CCN(S(=O)(=O)C3(C(=O)NO)CCOCC3)CC2)nc1 [Example 168] | – | – | 6.27 | 9.82
Cc1ccc(-c2csc(N3CCN(S(=O)(=O)C4(C(=O)NO)CCOCC4)CC3)n2)cc1 [Example 412] | < 5.00 | < 5.00 | – | –
O=C(NO)C1(S(=O)(=O)N2CCN(c3ncc(-c4ccc(Cl)cc4)cn3)CC2)CCOCC1 [Example 66] | – | – | 5.95 | 8.60
N#Cc1ccc(-c2cnc(N3CCN(S(=O)(=O)C4(C(=O)NO)CCOCC4)CC3)s2)cc1 [Example 399] | 8.01 | 10.30 | – | –
CCCCc1cnc(N2CCN(S(=O)(=O)C3(C(=O)NO)CCOCC3)CC2)nc1 [Example 105] | – | – | 5.78 | 8.53
CCCCOc1ccc(C2CCN(S(=O)(=O)C3(C(=O)NO)CCOCC3)CC2)nc1 [Example 410] | 5.87 | 9.26 | – | –
O=C(NO)C1(S(=O)(=O)N2CCC(c3ccc(-c4cccs4)c(F)c3)CC2)CCOCC1 [Example 407] | 5.52 | 9.44 | – | –
